Patent US20230149358A1, “COMBINATION CANCER THERAPY WITH PENTAAZA MACROCYCLIC RING COMPLEX AND HORMONE THERAPY AGENT” (Galera Labs, LLC, priority 2020, published 2023)

Key:
[1] = test system: MCF7 cells overexpressing MnSOD^K68Q; assay: MTT assay, MCF7 cells overexpressing MnSOD^K68Q; format: cell-based, human; conditions: 48 hours
Protocol: In FIGS. 28a-28b, cell lysates of 250 nM, 500 nM, 1 μM cisplatin-resistant and […], 1 nM and 2 nM doxorubicin-resistant MCF7 cells (cultured in drug-containing media for 3 months) were collected and immunoblotted for MnSOD-K68-Ac, MnSOD, actin and tubulin. In FIG. […] After 48 hours, MTT assay is conducted to determine the cell viability after chemotherapy drug treatment.
Cell proliferation was measured using MTT proliferation assay kit (ab211091). 10,000 exponentially growing cells were plated in regular growth medium per well into 96-well plates in triplicate. Cells were treated with specified drugs after overnight and incubated for 48 hours. The treatment media was then discarded and a mixture of 50 μl MTT reagent and 50 μl serum-free media was added into each well and incubated for 3 hours at 37° C. 150 μl of MTT solvent was then added, and the plate was shaken for 15 minutes avoiding light. The absorbance was read at OD=590 nm and used to evaluate cell proliferation.

adult mice = conditions: lethal total body irradiation of adult mice; cited from earlier work
colon of rats = conditions: experimental model of colitis; cited from earlier work
hamster = conditions: acute radiation-induced oral mucositis; cited from earlier work
rat [2] = conditions: rat model of collagen-induced arthritis; cited from earlier work
rat [3] = conditions: rat model of inflammation; cited from earlier work
MCF7-MnSOD^K68Q cells = assay: Clonogenic cell survival, MCF7-MnSOD^K68Q cells; format: cell-based, human
Protocol: FIGS. 25a-25b show clonogenic cell survival studies in MCF7-MnSOD^K68Q cells exposed to either: Fulv at 100 nM (in FIG. 25a); or Palb at 0.5 μM (in FIG. 25b) using standard methods. […] Error bars are ±1 SEM. Experiments in triplicate. *** p<0.001.
Clonogenic cell survival assay. For the clonogenic survival analysis, exponentially growing cells were replated using appropriate dilutions, and clonogenic survival was evaluated after 14 days in regular growth medium. Cells were stained with crystal violet, and colonies of >50 cells were counted and utilized to calculate clonogenic survival^46.
To evaluate clonogenic cell survival by testing cell growth at low density, 500 exponentially growing cells were plated in triplicate in 6-well plates using serial dilution, and the growth of the cells was examined throughout 14 days in regular growth medium. Cells were fixed with 70% ethanol for 5 minutes and then stained with 0.5% crystal violet (in 25% methanol) for 20 minutes. Photos of stained plates were taken, and colonies of more than 50 cells were counted and used to calculate clonogenic survival.

T47D-MnSOD^K68Q cells = assay: Clonogenic cell survival, T47D cells expressing MnSOD^K68Q; format: cell-based, human; conditions: 1 μM hydroxy-Tam
Protocol: FIGS. 14a-14g are images and plots that illustrate that loss of SIRT3-induced MnSOD-K68 deacetylation leads to hydroxy-Tam resistance in human breast cancer cells. With respect to FIG. 14a, T47D-MnSOD^WT, T47D-MnSOD^K68R, and T47D-MnSOD^K68D permanent cell lines were selected for hydroxy-Tam resistance in 1 μM for 3 months, and clonogenic cell survival experiments were completed. With respect to FIG. 14b, T47D-shCtrl and T47D-shSIRT3 permanent cell lines were exposed to 1 μM 4-hydroxy-Tam For 24 h (HT), and clonogenic cell survival experiments were done. With respect to FIG. 14c, T47D and T47D-HTR cells, with and without exposure to 1 μM 4-hydroxy-Tam for 24 h (HT), were measured for cytotoxicity by clonogenic survival experiments. […] The cell lysates were analyzed by immunoblotting with anti-MnSOD-K122-Ac (validated as a SIRT3 deacetylation target in Tao et al., 2010, Cancer Cell), anti-MnSOD, anti-OSCP-K139-Ac (validated as a SIRT3 deacetylation target in Tao et al., 2010, Cancer Cell), anti-OSCP, anti-IDH2K413-Ac (validated as a SIRT3 deacetylation target in Someya et al., 2010, Cancer Cell), anti-IDH2, and anti-actin. […]
Clonogenic cell survival assay. For the clonogenic survival analysis, exponentially growing cells were replated using appropriate dilutions, and clonogenic survival was evaluated after 14 days in regular growth medium. […]

[4] = test system: LNCaP-MnSOD^K68Q xenografts; assay: LNCaP-MnSOD^K68Q hindlimb xenograft growth in nude mice; format: in vivo; conditions: male nude mice; GC4419 10 mg/kg once per week, ENZ 25 mg/kg/day; 46 days
Protocol: In FIG. 21(a), clonogenic cell survival experiments were performed in LNCaP-ENZR (left two bars) and LNCaP-MnSOD^K68Q (right two bars) treated with ENZ, with or without GC4419 (20 μM) for 5 days. […] Tumor volumes were measured three times a week for 46 days. For each group n=10. Error bars ±1 SEM. All experiments done in triplicate. **p<0.01.
Thus, it was surmised that restoring SOD activity, using the pentaaza macrocyclic ring complex GC4419, an agent that chemically detoxifies superoxide, would reverse/convert the ENZR to a sensitive phenotype. […] The dose and pharmacokinetics for GC4419 is based on data for murine models^92-93.

COc1cccc2c1C(=O)c1c(O)c3c(c(O)c1C2=O)C[C@@](O)(C(=O)CO)C[C@@H]3O[C@H]1C[C@H](N)[C@H](O)[C@H](C)O1 [DXR, doxorubicin]
cell viability (MTT), resistance ([1]; DXR 2 nM): exhibited higher resistance

[Cl-].[Cl-].[Mn+2].c1cc2nc(c1)CN[C@@H]1CCCC[C@H]1NCCN[C@@H]1CCCC[C@H]1NC2 [GC4403]
radiation damage (adult mice): attenuate the radiation damage
injury to the colon (colon of rats): very significantly reduce the injury to the colon
radiation damage (hamster): attenuate the radiation damage
joint disease (rat [2]): prevent joint disease
inflammation (rat [3]): inhibit inflammation

4-hydroxytamoxifen [hydroxy-Tam]
cytotoxicity (clonogenic survival), versus cells expressing MnSOD WT or K68R (MCF7-MnSOD^K68Q cells; MCF7 cells expressing MnSOD^K68Q, 1 μM hydroxy-Tam for 5 days): exhibited significant resistance to the cytotoxicity
cytotoxicity (clonogenic survival), versus cells expressing MnSOD WT or K68R (T47D-MnSOD^K68Q cells): exhibited significant resistance to the cytotoxicity

[NH2][Pt]([NH2])([Cl])[Cl] [CDDP, cisplatin]
cell viability (MTT), resistance ([1]; CDDP 1 μM): exhibited higher resistance

C[C@]12CC[C@@H]3c4ccc(O)cc4C[C@@H](CCCCCCCCC[S+]([O-])CCCC(F)(F)C(F)(F)F)[C@H]3[C@@H]1CC[C@@H]2O (some centres unmarked) [Fulv, Fulvestrant]
clonogenic cell survival, resistance versus MCF7-MnSOD^WT (MCF7-MnSOD^K68Q cells; Fulv at 100 nM): exhibited resistance

CNC(=O)c1ccc(N2C(=S)N(c3ccc(C#N)c(C(F)(F)F)c3)C(=O)C2(C)C)cc1F [ENZ, enzalutamide, reference compound]
xenograft growth (tumor volume) [4]: exhibited similar growth characteristics as the control LNCaP cells
